{"source": "patent EP0745595A1", "about": "“3-(3-Aryloxyphenyl)-1-(substituted methyl)-s-triazine-2,4,6-oxo or thiotrione herbicidal agents” (American Cyanamid Company, priority 1995, dated 1996)", "type_in_all_cases": "in vivo", "key": {"[1]": {"system": "SETARIA VIRIDIS, (L) BEAU", "experiment": "Preemergence herbicidal evaluation, SETVI (Foxtail, Green)", "details": "rated four to five weeks after treatment", "text": "(§1) Results of herbicide evaluation are expressed on a rating scale (0-9). The scale is based upon a visual observation of plant stand, vigor, malformation, size, chlorosis and overall plant appearance as compared with a control.\n(§2) The preemergence herbicidal activity of the test compounds of the present invention is exemplified by the following tests in which the seeds of a variety of monocotyledonous and dicotyledonous plants are separately mixed with potting soil and planted on top of approximately one inch of soil in separate pint cups. […] The treated cups are then placed on greenhouse benches, watered and cared for in accordance with conventional greenhouse procedures. From four to five weeks after treatment, the tests are terminated and each cup is examined and rated according to the rating system provided in Example 40.\n(§3) The compounds evaluated are reported by compound number given in Example 40."}, "CASSIA OBTUSIFOLIA, L.": {"system": "CASSIA OBTUSIFOLIA, L.", "experiment": "Preemergence herbicidal evaluation, CASOB (Sicklepod)", "details": "rated four to five weeks after treatment", "method_in_brief": "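Preemergence herbicidal activity against sicklepod was assessed by planting seed mixed with potting soil atop about one inch of soil in pint cups. After treatment the cups were watered and handled per standard greenhouse practice. Tests ended four to five weeks later, with plant stand, vigor, malformation, size, chlorosis and overall appearance scored 0-9 relative to a control.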"}, "[2]": {"system": "ECHINOCHLOA ORYZOIDES (ARD.)FRITSCH", "experiment": "Preemergence weed control under flooded paddy conditions, ECHORC (Watergrass (Calif.))", "details": "preemergence, 3-4 weeks after treatment", "method_in_brief": "(§4)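 In undrained pots of silt loam flooded to 1.5-3 cm, compounds are pipetted into the water before emergence at the equivalent of about 0.5, 0.25, 0.125 and 0.063 kg/ha. Plants are scored 0-9 for stand, vigor, malformation, size and chlorosis at test end (3-4 weeks).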"}, "[3]": {"system": "CYPERUS SEROTINUS, ROTTB.", "experiment": "Preemergence weed control under flooded paddy conditions, CYPSE (Flatsedge)", "details": "preemergence, 3-4 weeks after treatment", "method_in_brief": "as §4"}, "SAGITTARIA PYGMAEA, L.": {"system": "SAGITTARIA PYGMAEA, L.", "experiment": "Preemergence weed control under flooded paddy conditions, SAGPY (Arrowhead (Pygmaea))", "details": "preemergence, 3-4 weeks after treatment", "method_in_brief": "as §4"}, "[4]": {"system": "ORYZA SATIVA, L. TEBONNET", "experiment": "Preemergence herbicidal evaluation, ORYSAT (Rice, Tebonnet)", "details": "rated four to five weeks after treatment", "text": "as §1, §2, §3"}, "[5]": {"system": "ECHINOCHLOA CRUS-GALLI, (L) BEAU", "experiment": "Preemergence herbicidal evaluation, ECHCG (Barnyardgrass)", "details": "rated four to five weeks after treatment", "method_in_brief": "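In this preemergence herbicide test, cups holding seeds of ECHCG sown in potting soil over roughly one inch of soil were treated and then grown under conventional greenhouse care. Tests were ended four to five weeks after treatment, and injury was scored 0-9 from stand, vigor, malformation, size, chlorosis and overall appearance relative to a control.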"}, "[6]": {"system": "GLYCINE MAX(L) MERR. CV. WILLIAMS", "experiment": "Preemergence herbicidal evaluation, GLXMAW (Soybean, Williams)", "details": "rated four to five weeks after treatment", "method_in_brief": "(§5)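 Preemergence, greenhouse: seed + potting soil sown on ~1 inch soil in cups; aqueous acetone spray, ~0.125–0.50 kg/ha equivalent; rated 0-9 vs control at 4–5 wk.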"}, "CHENOPODIUM ALBUM, L.": {"system": "CHENOPODIUM ALBUM, L.", "experiment": "Preemergence herbicidal evaluation, CHEAL (Lambsquarters, Common)", "details": "rated four to five weeks after treatment", "method_in_brief": "as §5"}, "[7]": {"system": "ORYZA SATIVA, L. TEBONNET", "experiment": "Rice tolerance to post-transplant applications under flooded paddy conditions, ORYSAT (Rice, Tebonnet)", "details": "post-transplant rice, 3-4 weeks after treatment", "method_in_brief": "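Greenhouse pots of silt loam, each with two transplanted ten-day-old seedlings, are held under 1.5 to 3 cm of standing water. Three days later the compound is applied to the flooded surface at about 0.5, 0.25, 0.125 or 0.063 kg/ha. Damage is scored visually 0-9 after 3-4 weeks.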"}, "ZEA MAYS L.": {"system": "ZEA MAYS L.", "experiment": "Preemergence herbicidal evaluation, ZEAMX (Corn, Field)", "details": "rated four to five weeks after treatment", "method_in_brief": "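Preemergence herbicidal activity on field corn: seeds in potting soil were sown atop roughly one inch of soil in separate pint cups, treated, and grown under standard greenhouse care. Four to five weeks post-treatment, stand, vigor, malformation, size, chlorosis and overall appearance were compared with a control and scored 0-9.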"}, "IPOMOEA SPP.": {"system": "IPOMOEA SPP.", "experiment": "Preemergence herbicidal evaluation, IPOSS (Morningglory spp.)", "details": "rated four to five weeks after treatment", "method_in_brief": "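This preemergence greenhouse test scored herbicidal effect on morningglory planted in pint cups, with seed mixed into potting soil and placed over about one inch of soil. After treatment the cups were watered and kept under conventional care. At four to five weeks, plant stand, vigor, malformation, size, chlorosis and overall appearance were compared with a control and rated 0-9.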"}}}
{"smiles": "COC(=O)Cn1c(=O)[nH]c(=O)n(-c2cc(Oc3ccc(Cl)cc3Cl)ccc2[N+](=O)[O-])c1=O", "note": "[Compound 14, Methyl 3-[5-(2,4-dichlorophenoxy)-2-nitrophenyl]tetrahydro-2,4,6-trioxo-s-triazine-1(2H)-acetate]", "values": [{"measurement": "SETVI herbicidal rating", "setting": "[1]; Rate 0.125 kg/ha", "value": 0.0}, {"measurement": "SETVI herbicidal rating", "setting": "[1]; Rate 0.250 kg/ha", "value": 0.0}, {"measurement": "SETVI herbicidal rating", "setting": "[1]; Rate 0.500 kg/ha", "value": 0.0}, {"measurement": "CASOB herbicidal rating", "setting": "CASSIA OBTUSIFOLIA, L.; Rate 0.125 kg/ha", "value": 0.0}, {"measurement": "CASOB herbicidal rating", "setting": "CASSIA OBTUSIFOLIA, L.; Rate 0.250 kg/ha", "value": 0.0}, {"measurement": "CASOB herbicidal rating", "setting": "CASSIA OBTUSIFOLIA, L.; Rate 0.500 kg/ha", "value": 0.0}, {"measurement": "Herbicidal effect rating, ECHORC", "setting": "[2]; 0.063 kg/ha", "value": 0.0}, {"measurement": "Herbicidal effect rating, ECHORC", "setting": "[2]; 0.125 kg/ha", "value": 0.0}, {"measurement": "Herbicidal effect rating, ECHORC", "setting": "[2]; 0.250 kg/ha", "value": 0.0}, {"measurement": "Herbicidal effect rating, ECHORC", "setting": "[2]; 0.500 kg/ha", "value": 0.0}, {"measurement": "Herbicidal effect rating, CYPSE", "setting": "[3]; 0.063 kg/ha", "value": 0.0}, {"measurement": "Herbicidal effect rating, CYPSE", "setting": "[3]; 0.125 kg/ha", "value": 0.0}, {"measurement": "Herbicidal effect rating, CYPSE", "setting": "[3]; 0.250 kg/ha", "value": 0.0}, {"measurement": "Herbicidal effect rating, CYPSE", "setting": "[3]; 0.500 kg/ha", "value": 0.0}, {"measurement": "Herbicidal effect rating, SAGPY", "setting": "SAGITTARIA PYGMAEA, L.; 0.063 kg/ha", "value": 0.0}, {"measurement": "Herbicidal effect rating, SAGPY", "setting": "SAGITTARIA PYGMAEA, L.; 0.125 kg/ha", "value": 0.0}, {"measurement": "Herbicidal effect rating, SAGPY", "setting": "SAGITTARIA PYGMAEA, L.; 0.250 kg/ha", "value": 0.0}, {"measurement": "Herbicidal effect rating, SAGPY", "setting": "SAGITTARIA PYGMAEA, L.; 0.500 kg/ha", "value": 0.0}, {"measurement": "ORYSAT herbicidal rating", "setting": "[4]; Rate 0.125 kg/ha", "value": 1.0}, {"measurement": "ORYSAT herbicidal rating", "setting": "[4]; Rate 0.250 kg/ha", "value": 1.0}, {"measurement": "ORYSAT herbicidal rating", "setting": "[4]; Rate 0.500 kg/ha", "value": 1.0}, {"measurement": "ECHCG herbicidal rating", "setting": "[5]; Rate 0.125 kg/ha", "value": 0.0}, {"measurement": "ECHCG herbicidal rating", "setting": "[5]; Rate 0.250 kg/ha", "value": 0.0}, {"measurement": "ECHCG herbicidal rating", "setting": "[5]; Rate 0.500 kg/ha", "value": 0.0}, {"measurement": "GLXMAW herbicidal rating", "setting": "[6]; Rate 0.125 kg/ha", "value": 0.0}, {"measurement": "GLXMAW herbicidal rating", "setting": "[6]; Rate 0.250 kg/ha", "value": 0.0}, {"measurement": "GLXMAW herbicidal rating", "setting": "[6]; Rate 0.500 kg/ha", "value": 0.0}, {"measurement": "CHEAL herbicidal rating", "setting": "CHENOPODIUM ALBUM, L.; Rate 0.125 kg/ha", "value": 9.0}, {"measurement": "CHEAL herbicidal rating", "setting": "CHENOPODIUM ALBUM, L.; Rate 0.250 kg/ha", "value": 9.0}, {"measurement": "CHEAL herbicidal rating", "setting": "CHENOPODIUM ALBUM, L.; Rate 0.500 kg/ha", "value": 9.0}, {"measurement": "Herbicidal effect rating, ORYSAT", "setting": "[7]; 0.063 kg/ha", "value": 0.0}, {"measurement": "Herbicidal effect rating, ORYSAT", "setting": "[7]; 0.125 kg/ha", "value": 0.0}, {"measurement": "Herbicidal effect rating, ORYSAT", "setting": "[7]; 0.250 kg/ha", "value": 0.0}, {"measurement": "Herbicidal effect rating, ORYSAT", "setting": "[7]; 0.500 kg/ha", "value": 0.0}, {"measurement": "ZEAMX herbicidal rating", "setting": "ZEA MAYS L.; Rate 0.125 kg/ha", "value": 0.0}, {"measurement": "ZEAMX herbicidal rating", "setting": "ZEA MAYS L.; Rate 0.250 kg/ha", "value": 0.0}, {"measurement": "ZEAMX herbicidal rating", "setting": "ZEA MAYS L.; Rate 0.500 kg/ha", "value": 0.0}, {"measurement": "IPOSS herbicidal rating", "setting": "IPOMOEA SPP.; Rate 0.125 kg/ha", "value": 0.0}, {"measurement": "IPOSS herbicidal rating", "setting": "IPOMOEA SPP.; Rate 0.250 kg/ha", "value": 0.0}, {"measurement": "IPOSS herbicidal rating", "setting": "IPOMOEA SPP.; Rate 0.500 kg/ha", "value": 0.0}]}
